Laboratory results: ChEMBL document CHEMBL4308841, “Synthesis, in vitro antiproliferative activity, and kinase inhibitory effects of pyrazole-containing diarylureas and diarylamides” (Eur J Med Chem, 2018)

Tests used:
[1] = tested on: PC-3; test: Growth inhibition of human PC3 cells assessed as cell growth at 0.01 uM incubated for 48 hrs by sulforhodamine B assay relative to control; assay type: functional; settings: PC-3, 48 h, read-out: Activity
[2] = tested on: NCI-H522; test: Growth inhibition of human NCI-H522 cells assessed as cell growth at 0.01 uM incubated for 48 hrs by sulforhodamine B assay relative to control; assay type: functional; settings: NCI-H522, 48 h, read-out: Activity
[3] = tested on: NCI-H322M; test: Growth inhibition of human NCI-H322M cells assessed as cell growth at 0.1 uM incubated for 48 hrs by sulforhodamine B assay relative to control; assay type: functional; settings: read-out: Activity
[4] = tested on: DU-145; test: Growth inhibition of human DU145 cells assessed as cell growth at 1 uM incubated for 48 hrs by sulforhodamine B assay relative to control; assay type: functional; settings: DU-145, 48 h, read-out: Activity
[5] = tested on: UACC-257; test: Growth inhibition of human UACC257 cells assessed as cell growth at 0.01 uM incubated for 48 hrs by sulforhodamine B assay relative to control; assay type: functional; settings: UACC-257, 48 h, read-out: Activity
[6] = tested on: DU-145; test: Growth inhibition of human DU145 cells assessed as cell growth at 0.01 uM incubated for 48 hrs by sulforhodamine B assay relative to control; assay type: functional; settings: DU-145, 48 h, read-out: Activity
[7] = tested on: SW-620; test: Growth inhibition of human SW620 cells assessed as cell growth at 1 uM incubated for 48 hrs by sulforhodamine B assay relative to control; assay type: functional; settings: SW-620, 48 h, read-out: Activity
[8] = tested on: MDA-MB-231; test: Growth inhibition of human MDA-MB-231 cells assessed as cell growth at 0.01 uM incubated for 48 hrs by sulforhodamine B assay relative to control; assay type: functional; settings: MDA-MB-231, 48 h, read-out: Activity
[9] = tested on: LOX IMVI; test: Growth inhibition of human LOXIMVI cells assessed as cell growth at 0.1 uM incubated for 48 hrs by sulforhodamine B assay relative to control; assay type: functional; settings: read-out: Activity
[10] = tested on: NCI-H322M; test: Growth inhibition of human NCI-H322M cells assessed as cell growth at 0.01 uM incubated for 48 hrs by sulforhodamine B assay relative to control; assay type: functional; settings: read-out: Activity
[11] = tested on: COLO 205; test: Growth inhibition of human COLO205 cells assessed as cell growth at 1 uM incubated for 48 hrs by sulforhodamine B assay relative to control; assay type: functional; settings: COLO 205, 48 h, read-out: Activity
[12] = tested on: SF-295; test: Growth inhibition of human SF295 cells assessed as cell growth at 100 uM incubated for 48 hrs by sulforhodamine B assay relative to control; assay type: functional; settings: SF-295, 48 h, read-out: Activity
[13] = tested on: OVCAR-4; test: Growth inhibition of human OVCAR4 cells assessed as cell growth at 100 uM incubated for 48 hrs by sulforhodamine B assay relative to control; assay type: functional; settings: OVCAR-4, 48 h, read-out: Activity
[14] = tested on: SNB-75; test: Growth inhibition of human SNB75 cells assessed as cell growth at 1 uM incubated for 48 hrs by sulforhodamine B assay relative to control; assay type: functional; settings: SNB-75, 48 h, read-out: Activity
[15] = tested on: SN12C; test: Growth inhibition of human SN12C cells assessed as cell growth at 100 uM incubated for 48 hrs by sulforhodamine B assay relative to control; assay type: functional; settings: read-out: Activity
[16] = tested on: SNB-75; test: Growth inhibition of human SNB75 cells assessed as cell growth at 100 uM incubated for 48 hrs by sulforhodamine B assay relative to control; assay type: functional; settings: SNB-75, 48 h, read-out: Activity
[17] = tested on: 786-0; test: Growth inhibition of human 786-0 cells assessed as cell growth at 0.01 uM incubated for 48 hrs by sulforhodamine B assay relative to control; assay type: functional; settings: 786-0, 48 h, read-out: Activity
[18] = tested on: A498; test: Growth inhibition of human A498 cells assessed as cell growth at 0.1 uM incubated for 48 hrs by sulforhodamine B assay relative to control; assay type: functional; settings: A498, 48 h, read-out: Activity
[19] = tested on: 786-0; test: Growth inhibition of human 786-0 cells assessed as cell growth at 0.1 uM incubated for 48 hrs by sulforhodamine B assay relative to control; assay type: functional; settings: 786-0, 48 h, read-out: Activity
[20] = tested on: UACC-62; test: Growth inhibition of human UACC62 cells assessed as cell growth at 0.01 uM incubated for 48 hrs by sulforhodamine B assay relative to control; assay type: functional; settings: UACC-62, 48 h, read-out: Activity
[21] = tested on: BT-549; test: Growth inhibition of human BT549 cells incubated for 48 hrs by sulforhodamine B assay; assay type: functional, cell-based; settings: BT-549, 48 h
[22] = tested on: OVCAR-5; test: Growth inhibition of human OVCAR5 cells assessed as cell growth at 1 uM incubated for 48 hrs by sulforhodamine B assay relative to control; assay type: functional; settings: OVCAR-5, 48 h, read-out: Activity
[23] = tested on: SNB-19; test: Growth inhibition of human SNB19 cells assessed as cell growth at 1 uM incubated for 48 hrs by sulforhodamine B assay relative to control; assay type: functional; settings: SNB-19, 48 h, read-out: Activity
[24] = tested on: SF-295; test: Growth inhibition of human SF295 cells assessed as cell growth at 1 uM incubated for 48 hrs by sulforhodamine B assay relative to control; assay type: functional; settings: SF-295, 48 h, read-out: Activity
[25] = tested on: NCI-H460; test: Growth inhibition of human NCI-H460 cells assessed as cell growth at 0.1 uM incubated for 48 hrs by sulforhodamine B assay relative to control; assay type: functional; settings: NCI-H460, 48 h, read-out: Activity
[26] = tested on: SW-620; test: Growth inhibition of human SW620 cells assessed as cell growth at 0.01 uM incubated for 48 hrs by sulforhodamine B assay relative to control; assay type: functional; settings: SW-620, 48 h, read-out: Activity
[27] = tested on: LOX IMVI; test: Growth inhibition of human LOXIMVI cells assessed as cell growth at 0.01 uM incubated for 48 hrs by sulforhodamine B assay relative to control; assay type: functional; settings: read-out: Activity
[28] = tested on: M14; test: Growth inhibition of human M14 cells assessed as cell growth at 100 uM incubated for 48 hrs by sulforhodamine B assay relative to control; assay type: functional; settings: M14, 48 h, read-out: Activity
[29] = tested on: SK-OV-3; test: Growth inhibition of human SKOV3 cells incubated for 48 hrs by sulforhodamine B assay; assay type: functional, cell-based; settings: SK-OV-3, 48 h
[30] = tested on: MDA-MB-468; test: Growth inhibition of human MDA-MB-468 cells assessed as cell growth at 0.01 uM incubated for 48 hrs by sulforhodamine B assay relative to control; assay type: functional; settings: MDA-MB-468, 48 h, read-out: Activity
[31] = tested on: CAKI-1; test: Growth inhibition of human Caki1 cells assessed as cell growth at 1 uM incubated for 48 hrs by sulforhodamine B assay relative to control; assay type: functional; settings: CAKI-1, 48 h, read-out: Activity
[32] = tested on: NCI-H522; test: Growth inhibition of human NCI-H522 cells assessed as cell growth at 100 uM incubated for 48 hrs by sulforhodamine B assay relative to control; assay type: functional; settings: NCI-H522, 48 h, read-out: Activity
[33] = tested on: SK-MEL-5; test: Growth inhibition of human SK-MEL-5 cells assessed as cell growth at 0.01 uM incubated for 48 hrs by sulforhodamine B assay relative to control; assay type: functional; settings: SK-MEL-5, 48 h, read-out: Activity
[34] = read-out: LC50 (the source's name)
[35] = read-out: pLC50 (the source's name) (converted)

`O=C(Nc1cccc(-n2cc(-c3ccncc3)c(-c3cc(O)cc(Cl)c3)n2)c1)c1ccc(N2CCOCC2)c(C(F)(F)F)c1` was tested, and the growth at 0.01 µM [1] was 93%, the growth at 0.01 µM [2] was 50% and the growth at 0.1 µM [3] was 97%. For the same compound, the growth at 1 µM [4] was 92%, the growth at 0.01 µM [5] was 91% and the growth at 0.01 µM [6] was 100%. For the same compound, the growth at 1 µM [7] was 107%, the growth at 0.01 µM [8] was 100% and the growth at 0.1 µM [9] was 102%. It also gave a growth at 0.01 µM [10] of 56%, a growth at 1 µM [11] of 100% and a growth at 100 µM [12] of -81%. For the same compound, the growth at 100 µM [13] was 57%, the growth at 1 µM [14] was 45% and the growth at 100 µM [15] was 38%. It also gave a growth at 100 µM [16] of 1%, a growth at 0.01 µM [17] of 102% and a growth at 0.1 µM [18] of 85%. It also gave a growth at 0.1 µM [19] of 94%, a growth at 0.01 µM [20] of 96% and a GI50 ([21]; read-out: GI50) of 4.21 µM. For the same compound, the CC50 [21, 34] was > 100 µM, the TGI ([21]; read-out: TGI) was > 100 µM and the GI50 ([21]; read-out: pGI50 (converted)) was 4.17 µM. For the same compound, the CC50 [21, 35] was > 100 µM, the TGI ([21]; read-out: pTGI (converted)) was > 100 µM and the growth at 1 µM [22] was 111%. The growth at 1 µM [23] was 90%, the growth at 1 µM [24] was 39% and the growth at 0.1 µM [25] was 104%. The growth at 0.01 µM [26] was 103%, the growth at 0.01 µM [27] was 100% and the growth at 100 µM [28] was -54%. For the same compound, the GI50 ([29]; read-out: GI50) was 95.3 µM, the CC50 [29, 34] was > 100 µM and the TGI ([29]; read-out: TGI) was > 100 µM. The GI50 ([29]; read-out: pGI50 (converted)) was 9.55 µM, the CC50 [29, 35] was > 100 µM and the TGI ([29]; read-out: pTGI (converted)) was > 100 µM. It also gave a growth at 0.01 µM [30] of 92%, a growth at 1 µM [31] of 53% and a growth at 100 µM [32] of -20%. It also gave a growth at 0.01 µM [33] of 98%.
With `O=C(Nc1cccc(-n2cc(-c3ccncc3)c(-c3cc(O)cc(Cl)c3)n2)c1)Nc1ccc(Cl)c(C(F)(F)F)c1` the growth at 0.01 µM [1] was 95%, the growth at 0.01 µM [2] was 56% and the growth at 0.1 µM [3] was 101%. The growth at 1 µM [4] was 96%, the growth at 0.01 µM [5] was 90% and the growth at 0.01 µM [6] was 103%. The growth at 1 µM [7] was 101%, the growth at 0.01 µM [8] was 105% and the growth at 0.1 µM [9] was 95%. It also gave a growth at 0.01 µM [10] of 107%, a growth at 1 µM [11] of 99% and a growth at 100 µM [12] of -80%. It also gave a growth at 100 µM [13] of -10%, a growth at 1 µM [14] of 54% and a growth at 100 µM [15] of -32%. It also gave a growth at 100 µM [16] of -41%, a growth at 0.01 µM [17] of 98% and a growth at 0.1 µM [18] of 50%. It also gave a growth at 0.1 µM [19] of 95%, a growth at 0.01 µM [20] of 104% and a GI50 ([21]; read-out: GI50) of 2.25 µM. For the same compound, the CC50 [21, 34] was 23.7 µM, the TGI ([21]; read-out: TGI) was 51.5 µM and the GI50 ([21]; read-out: pGI50 (converted)) was 2.82 µM. It also gave a CC50 [21, 35] of 23.4 µM, a TGI ([21]; read-out: pTGI (converted)) of 6.17 µM and a growth at 1 µM [22] of 109%. For the same compound, the growth at 1 µM [23] was 104%, the growth at 1 µM [24] was 91% and the growth at 0.1 µM [25] was 102%. For the same compound, the growth at 0.01 µM [26] was 97%, the growth at 0.01 µM [27] was 90% and the growth at 100 µM [28] was -57%. For the same compound, the GI50 ([29]; read-out: GI50) was 4.11 µM, the CC50 [29, 34] was > 100 µM and the TGI ([29]; read-out: TGI) was 30.7 µM. For the same compound, the GI50 ([29]; read-out: pGI50 (converted)) was 4.07 µM, the CC50 [29, 35] was > 100 µM and the TGI ([29]; read-out: pTGI (converted)) was 30.9 µM. For the same compound, the growth at 0.01 µM [30] was 93%, the growth at 1 µM [31] was 98% and the growth at 100 µM [32] was -95%. The growth at 0.01 µM [33] was 97%.
